Active and inactive are the calls of the source. No cut-off for these calls is given here.
Molecular target: Receptor tyrosine-protein kinase erbB-2 (Homo sapiens, UniProt P04626)
Assay: Binding affinity to synthetic peptide mimicking HER2 subdomain 4 (unknown origin) by fluorescence spectroscopic analysis

Receptor tyrosine-protein kinase erbB-2, sequence (P04626 whole entry): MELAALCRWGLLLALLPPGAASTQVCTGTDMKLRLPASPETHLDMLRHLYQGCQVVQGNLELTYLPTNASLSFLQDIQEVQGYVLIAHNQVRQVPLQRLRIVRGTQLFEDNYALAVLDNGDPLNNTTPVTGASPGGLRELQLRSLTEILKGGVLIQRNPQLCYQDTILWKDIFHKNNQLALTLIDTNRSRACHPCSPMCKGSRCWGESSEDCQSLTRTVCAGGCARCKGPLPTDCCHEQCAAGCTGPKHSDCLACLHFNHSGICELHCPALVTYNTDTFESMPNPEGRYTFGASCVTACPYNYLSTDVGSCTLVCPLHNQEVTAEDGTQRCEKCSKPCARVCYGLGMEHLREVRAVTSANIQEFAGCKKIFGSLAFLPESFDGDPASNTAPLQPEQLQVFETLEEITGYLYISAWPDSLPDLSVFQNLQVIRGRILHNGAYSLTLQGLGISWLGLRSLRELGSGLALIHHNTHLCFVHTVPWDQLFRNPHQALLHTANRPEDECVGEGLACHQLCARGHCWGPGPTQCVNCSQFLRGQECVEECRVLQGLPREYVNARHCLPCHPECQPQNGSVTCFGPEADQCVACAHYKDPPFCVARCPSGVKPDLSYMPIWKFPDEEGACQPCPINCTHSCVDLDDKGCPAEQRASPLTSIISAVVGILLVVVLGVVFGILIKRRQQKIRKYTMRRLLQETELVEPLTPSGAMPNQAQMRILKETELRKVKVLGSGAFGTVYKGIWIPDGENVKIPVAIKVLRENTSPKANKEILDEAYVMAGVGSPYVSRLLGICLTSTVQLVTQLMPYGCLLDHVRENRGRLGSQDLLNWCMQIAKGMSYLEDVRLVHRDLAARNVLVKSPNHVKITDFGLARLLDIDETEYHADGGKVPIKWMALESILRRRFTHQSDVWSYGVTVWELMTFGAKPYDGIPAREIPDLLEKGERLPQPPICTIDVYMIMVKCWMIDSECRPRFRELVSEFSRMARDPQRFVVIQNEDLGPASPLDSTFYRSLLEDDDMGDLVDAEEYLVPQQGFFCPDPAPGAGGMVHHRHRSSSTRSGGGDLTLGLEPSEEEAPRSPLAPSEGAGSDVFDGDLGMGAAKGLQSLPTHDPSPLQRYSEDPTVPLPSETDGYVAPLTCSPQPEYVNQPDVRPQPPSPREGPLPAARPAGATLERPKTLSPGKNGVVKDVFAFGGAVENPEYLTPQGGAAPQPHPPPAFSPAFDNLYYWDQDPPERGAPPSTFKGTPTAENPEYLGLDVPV

| Substance | Kd [nM] | Activity |
| --- | --- | --- |
| Ac-ARIYPTNGYTRY-NH2 | 446 | – |
| Ac-CQQHYTTPPTFG-NH2 | 174 | – |
| Ac-CSRWGGDGFYAMDYWG-NH2 | – | inactive |
| Ac-QDVNTAVAW-NH2 | 10.2 | – |

From ChEMBL document CHEMBL2331275, “Fluorescence study for selecting specific ligands toward HER2 receptor: an example of receptor fragment approach” (Eur J Med Chem, 2013)
